From patent US8802135B2, “Delivery system for remote treatment of an animal” (SmartVet Pty Ltd., priority 2006, dated 2014)

How the values were obtained:
[1] = primate skin types in contact with pure ivermectin; cited from earlier work
[2] = drug trials: absorption of abamectin from projectile vs Pour On; type: in vivo; settings: applied in a projectile at 5 g/l
From the text: The system has been adapted for use in Africa for treating antelope species. Each projectile was designed to treat a 100 kg animal.

[3] = tested on: wireworm; assay: efficacy trial against endo-parasite wireworm; type: in vivo, cattle; settings: ~200 kg cow, slaughtered 3 weeks after treatment
Experimental: The purpose of the trial was to establish the efficacy of biologically active agent when administered by the system according to the present invention in treating cattle for the endo-parasite wireworm.
Two cattle of similar age and weight (˜200 kg) were infected with wireworm parasite to the level of 6000 to 8000 worm eggs per gram of faeces. One cow was treated with the biologically active agent in its ‘pour on’ form and the other cattle were treated with two dosage projectiles fired from a distance of approx 20 meters with a CO2 propelled launcher with an impact velocity of about 130 ft/sec.
Each projectile was spherical and made from soft gelatine compound with the shell being of about 2 mm thick. The size was sufficient to hold about 10 ml of the liquid biologically active agent comprising the following constituent:
10 mg of abamectin (at a dosage concentration of 1 mg per 10 kg of body mass)
5% solution of the solvent/transdermal carrier propylene glycol (the proprietary brand Icinol)
a standard turquoise, inert pharmaceutical colorant known as FC & D blue
The impact area of the ruptured projectiles was the hind quarter and lower neck/shoulder of the cattle.
The cattle were slaughtered 3 weeks after treatment and the stomach contents/linings examined under laboratory conditions.

Row | Substance | active agent absorbed into the bloodstream [1] | absorption of the active compared with traditional Pour On application ([2]; antelope species) | absorption of the active compared with traditional Pour On application ([2]; cattle) | free of parasite ([3]; 'pour on' form) | free of internal parasite infection ([3]; two dosage projectiles) [%]
1 | ivermectin [pure ivermectin] | less than 1% | – | – | – | –
2 | abamectin | – | at least as good as | at least as good as | approx 96% | 100
